Results on 20 compounds are retold here after US9951052B2, “Inhibitors of the renal outer medullary potassium channel” (Merck Sharp & Dohme Corp., priority 2013, dated 2018).

Counter-ions that a name gives are not always drawn.

This assay has as its target T1, hROMK (hKir1.1) (Homo sapiens, UniProt P48048).
T1 construct: expressed in transfected cells
T1 sequence (P48048 1-391): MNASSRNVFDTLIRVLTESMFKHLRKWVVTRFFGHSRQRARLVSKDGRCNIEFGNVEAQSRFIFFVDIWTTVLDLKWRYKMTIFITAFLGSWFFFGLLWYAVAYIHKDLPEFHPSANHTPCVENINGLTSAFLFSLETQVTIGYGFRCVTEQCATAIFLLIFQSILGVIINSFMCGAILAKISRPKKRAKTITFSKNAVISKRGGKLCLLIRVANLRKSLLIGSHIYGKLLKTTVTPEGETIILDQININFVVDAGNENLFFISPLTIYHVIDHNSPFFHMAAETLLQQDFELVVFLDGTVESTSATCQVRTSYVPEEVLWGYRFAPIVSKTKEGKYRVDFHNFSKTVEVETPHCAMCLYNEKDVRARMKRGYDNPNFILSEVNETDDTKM
Kind of assay: Thallium Flux Assay (ROMK channel functional thallium flux, FLIPR-Tetra). Format: cell-based. The conditions noted are these: HEK293 cells stably expressing hROMK (hKir1.1); 30 min incubation with compound; HCl salt run where final product was an HCl salt. The protocol:
The following Thallium Flux Assay was performed on each of the final product compounds in the Examples. When the final product of an Example was an HCl salt, the salt was run in the Assay.
Cell Culture Conditions—HEK293 cells stably expressing hROMK (hKir1.1) were grown at 37° C. in a 10% CO2 humidified incubator in complete growth media: Dulbecco's Modified Eagle Medium supplemented with non-essential amino acids, Penicillin/Streptomycin/Glutamine, G418 and FBS. At >80% confluency, aspirate the media from the flask and rinse with 10 mL Calcium/Magnesium-free PBS. Add 5 mL of 1× trypsin (prepared in Ca/Mg Free PBS) to T-225 flask and return flask to 37° C./CO2 incubator for 2-3 minutes. To dislodge the cell, gently bang the side of the flask with your hand. Triturate the cells completely and then transfer the cells to 25 mL complete media. Centrifuge at 1,500 rpm for 6 min followed by resuspension in complete growth media and determine cell concentration. For typical re-seeding, 4E6 cells/T-225 flask will attain >80% confluency in 4 days. Under ideal growth conditions and appropriate tissue culture practices, this cell line is stable for 40-45 passages.
FluxOR Kit Components (Invitrogen F10017)
• FluxOR™ Reagent (Component A) • FluxOR™ Assay Buffer (Component B)—10× Concentrate • PowerLoad™ Concentrate (Component C)—100× Concentrate • Probenecid (Component D)—Lyophilized sample is kept at −20° C. Water soluble, 100× after solubilization in 1 mL water. Store at 4° C. • FluxOR™ Chloride-free Buffer (Component E)—5× Concentrate • Potassium sulfate (K2SO4) Concentrate (Component F)—125 mM in water. Store at 4° C. • Thallium sulfate (T12SO4) Concentrate (Component G)—50 mM in water. Store at 4° C. • DMSO (dimethyl sulfoxide, Component H)—1 mL (100%) Reagent Preparation: FluxOR Working Solutions • 1000× FluxOR™ Reagent: Reconstitute a vial of component A in 100 μl DMSO; Mix well; Store 10 μl aliquots at −20° C. • 1× FluxOR™ Assay Buffer: Dilute Component B 10-fold with water; Adjust pH to 7.4 with Hepes/NaOH; Filter and store at 4° C. • Probenecid/Assay Buffer: 100 mL of 1× FluxOR™ Assay Buffer; 1 mL of reconstituted component D; Store at 4° C. • Loading Buffer (per microplate): 10 μl 1000× FluxOR™ Reagent; 100 μl component C; 10 mL Probenecid/Assay Buffer • Compound Buffer (per microplate): 20 mL Probenecid/Assay Buffer; 0.3 mM ouabain (10 mM ouabain in water can be stored in amber bottle/aluminum foil at room temperature); Test compound • 1× FluxOR™ Chloride-Free Buffer: Prepare 1× working solution in water. Can be stored at room temperature • Stimulant Buffer (prepared at 5× final concentration in 1× FluxOR™ Chloride-Free Buffer): 7.5 mM Thallium sulfate and 0.75 mM Potassium sulfate (to give a final assay concentration of 3 mM Thallium/0.3 mM Potassium). Store at 4° C. when not in use.
Assay protocol—The ROMK channel functional thallium flux assay is performed in 384 wells, using the FLIPR-Tetra instrument. HEK-hKir1.1 cells are seeded in Poly-D-Lysine microplates and kept in a 37° C.-10% CO2 incubator overnight. On the day of the experiment, the growth media is replaced with the FluxOR™ reagent loading buffer and incubated, protected from light, at ambient temperature (23-25° C.) for 90 min. The loading buffer is replaced with assay buffer±test compound followed by 30 min incubation at ambient temperature, where the Thallium/Potassium stimulant is added to the microplate.
• 1. Seed HEK-hKir1.1 cells (50 μl at 20,000 cells/well) in 384-well PDL coated Microplates • 2. Allow cells to adhere overnight in humidified 37° C./10% CO2 incubator • 3. Completely remove cell growth media from microplate and replace with 25 μl loading buffer • 4. Incubate Microplate at room temperature, protected from light, for 90 min • 5. Remove loading buffer and replace with 25 μl 1× Assay Buffer±test compound. • 6. Incubate microplate at room temperature, protected from light, for 30 min • 7. […]
As a reminder, the IC50 is the point on the concentration scale where inhibition reaches its midpoint. For the compound `Cc1c([C@@H](O)CN2CCC(F)(C(=O)Nc3ccns3)CC2)ccc2c1COC2=O` [Example 47, 4-fluoro-1-[(2R)-2-hydroxy-2-(4-methyl-1-oxo-1,3-dihydro-2-benzofuran-5-yl)ethyl]-N-(isothiazol-5-yl)piperidine-4-carboxamide], the IC50 was 60 nM.

`Cc1c([C@@H](O)CN2CCC(F)(C(=O)Nc3cnsc3)CC2)ccc2c1COC2=O` [Example 50, (R)-4-fluoro-1-(2-hydroxy-2-(4-methyl-1-oxo-1,3-dihydroisobenzofuran-5-yl)ethyl)-N-(isothiazol-4-yl)piperidine-4-carboxamide]: the IC50 worked out at 370 nM.

For the compound `Cc1cc(N(C)C(=O)C2CCN(C[C@H](O)c3ccc4c(c3C)COC4=O)CC2)sn1` [Example 44, (R)-1-(2-hydroxy-2-(4-methyl-1-oxo-1,3-dihydroisobenzofuran-5-yl)ethyl)-N-methyl-N-(3-methylisothiazol-5-yl)piperidine-4-carboxamide], the half-maximal inhibitory concentration (IC50) turned out to be 20 nM.

On to `Cc1cc(NC(=O)C2(F)CCN(C[C@H](O)c3ccc4c(c3C)COC4=O)CC2)sn1` [Example 48, (R)-4-fluoro-1-(2-hydroxy-2-(4-methyl-1-oxo-1,3-dihydroisobenzofuran-5-yl)ethyl)-N-(3-methylisothiazol-5-yl)piperidine-4-carboxamide], for which the half-inhibitory concentration (IC50) came out at 40 nM.

Turning to `Cc1c([C@@H](O)CN2CCC(F)(C(=O)N3CCc4cnccc43)CC2)ccc2c1COC2=O` [Example 49, (R)-5-(2-(4-(2,3-dihydro-1H-pyrrolo[3,2-c]pyridine-1-carbonyl)-4-fluoropiperidin-1-yl)-1-hydroxyethyl)-4-methylisobenzofuran-1(3H)-one], the half-inhibitory concentration (IC50) stood at 200 nM.

In the case of `Cc1c([C@@H](O)CN2CCC(C(=O)Nc3cccc(-n4cnnn4)c3)CC2)ccc2c1COC2=O` [Example 24, (R)-N-(3-(1H-tetrazol-1-yl)phenyl)-1-(2-hydroxy-2-(4-methyl-1-oxo-1,3-dihydroisobenzofuran-5-yl)ethyl)piperidine-4-carboxamide], the concentration for half-maximal inhibition (IC50) worked out at 90 nM.

Regarding `Cc1nsc(NC(=O)C2CCN(C[C@H](O)c3ccc4c(c3C)COC4=O)CC2)n1` [Example 31, (R)-1-(2-hydroxy-2-(4-methyl-1-oxo-1,3-dihydroisobenzofuran-5-yl)ethyl)-N-(3-methyl-1,2,4-thiadiazol-5-yl)piperidine-4-carboxamide], the 50% inhibitory concentration (IC50) was determined as 160 nM.

As to `Cc1nc(NC(=O)C2(F)CCN(C[C@H](O)c3ccc4c(c3C)COC4=O)CC2)ccc1C#N` [Example 51, (R)-N-(5-cyano-6-methylpyridin-2-yl)-4-fluoro-1-(2-hydroxy-2-(4-methyl-1-oxo-1,3-dihydroisobenzofuran-5-yl)ethyl)piperidine-4-carboxamide], the IC50 is 220 nM.

In the case of `Cc1c(CCN2CCC(C(=O)Nc3ccc(C#N)cc3)CC2)ccc2c1COC2=O` [Example 3, N-(4-cyanophenyl)-1-(2-(4-methyl-1-oxo-1,3-dihydroisobenzofuran-5-yl)ethyl)piperidine-4-carboxamide], the IC50 was 140 nM.

As for `Cc1c([C@@H](O)CN2CC3C(C2)C3C(=O)Nc2ccc(C#N)cn2)ccc2c1COC2=O` (stereo partly drawn) [Example 59, N-(5-cyanopyridin-2-yl)-3-((R)-2-hydroxy-2-(4-methyl-1-oxo-1,3-dihydroisobenzofuran-5-yl)ethyl)-3-azabicyclo[3.1.0]hexane-6-carboxamide], the half-maximal inhibitory concentration (IC50) was 400 nM.

With `Cc1c([C@@H](O)CN2CC3C(C2)C3C(=O)Nc2ccc(-n3cnnn3)cn2)ccc2c1COC2=O` (stereo partly drawn) [Example 60, N-(5-(1H-tetrazol-1-yl)pyridin-2-yl)-3-((R)-2-hydroxy-2-(4-methyl-1-oxo-1,3-dihydroisobenzofuran-5-yl)ethyl)-3-azabicyclo[3.1.0]hexane-6-carboxamide], the IC50 stood at 470 nM.

As for `Cc1c(CCN2CCC(C(=O)Nc3ccc4nonc4c3)CC2)ccc2c1COC2=O` [Example 11, N-(benzo[c][1,2,5]oxadiazol-5-yl)-1-(2-(4-methyl-1-oxo-1,3-dihydroisobenzofuran-5-yl)ethyl)piperidine-4-carboxamide], the half-maximal inhibitory concentration (IC50) turned out to be 210 nM.

On to `Cc1c([C@@H](O)CN2CCC(N)(C(=O)Nc3ccns3)CC2)ccc2c1COC2=O` [Example 46, 4-amino-1-[(2R)-2-hydroxy-2-(4-methyl-1-oxo-1,3-dihydro-2-benzofuran-5-yl)ethyl]-N-(isothiazol-5-yl)piperidine-4-carboxamide hydrochloride], for which the IC50 came out at 50 nM.

For the compound `Cc1c([C@@H](O)CN2CCC(C(=O)Nc3nc(C4CC4)ns3)CC2)ccc2c1COC2=O` [Example 32, (R)-N-(3-cyclopropyl-1,2,4-thiadiazol-5-yl)-1-(2-hydroxy-2-(4-methyl-1-oxo-1,3-dihydroisobenzofuran-5-yl)ethyl)piperidine-4-carboxamide], the IC50 was determined as 300 nM.

In the case of `Cc1c(C(O)CN2CCC(O)(C(=O)Nc3ccc(C#N)cn3)CC2)ccc2c1COC2=O` (stereo in doubt) [Example 37, (R)-N-(5-cyanopyridin-2-yl)-4-hydroxy-1-(2-hydroxy-2-(4-methyl-1-oxo-1,3-dihydroisobenzofuran-5-yl)ethyl)piperidine-4-carboxamide], the 50% inhibitory concentration (IC50) amounted to 470 nM.

On to `COc1cc(NC(=O)C2CCN(C[C@H](O)c3ccc4c(c3C)COC4=O)CC2)ccc1C#N` [Example 26, (R)-N-(4-cyano-3-methoxyphenyl)-1-(2-hydroxy-2-(4-methyl-1-oxo-1,3-dihydroisobenzofuran-5-yl)ethyl)piperidine-4-carboxamide], for which the IC50 came out at 150 nM.

With `COc1cc(NC(=O)C2CCN(CCc3ccc4c(c3)COC4=O)CC2)ccc1C#N` [Example 13, N-(4-cyano-3-methoxyphenyl)-1-(2-(1-oxo-1,3-dihydroisobenzofuran-5-yl)ethyl)piperidine-4-carboxamide], the IC50 worked out at 30 nM.

For the compound `Cc1cc(NC(=O)C2C3CN(C[C@H](O)c4ccc5c(c4C)COC5=O)CC32)sn1` (stereo partly drawn) [Example 55, 3-((R)-2-hydroxy-2-(4-methyl-1-oxo-1,3-dihydroisobenzofuran-5-yl)ethyl)-N-(3-methylisothiazol-5-yl)-3-azabicyclo[3.1.0]hexane-6-carboxamide], the half-inhibitory concentration (IC50) was 60 nM.

`Cc1c([C@@H](O)CN2CCC(F)(C(=O)Nc3cnns3)CC2)ccc2c1COC2=O` [Example 53, (R)-4-fluoro-1-(2-hydroxy-2-(4-methyl-1-oxo-1,3-dihydroisobenzofuran-5-yl)ethyl)-N-(1,2,3-thiadiazol-5-yl)piperidine-4-carboxamide]: the half-inhibitory concentration (IC50) was found to be 260 nM.

Take `Cc1c(CCN2CCC(C(=O)Nc3ccc(C#N)nc3)CC2)ccc2c1COC2=O` [Example 4, N-(6-cyanopyridin-3-yl)-1-(2-(4-methyl-1-oxo-1,3-dihydroisobenzofuran-5-yl)ethyl)piperidine-4-carboxamide]: the 50% inhibitory concentration (IC50) worked out at 210 nM.
